Laboratory results reported in patent US8487121B2, “Chromane derivatives as TRPV3 modulators” (Glenmark Pharmaceuticals S.A., priority 2007, dated 2013).

Target: T1, Human TRPV3 (Homo sapiens, UniProt Q8NET8)
T1 construct: expressed in transfected cells; host or cells: CHO cells (G-418 selected)
T1 sequence (Q8NET8 1-790): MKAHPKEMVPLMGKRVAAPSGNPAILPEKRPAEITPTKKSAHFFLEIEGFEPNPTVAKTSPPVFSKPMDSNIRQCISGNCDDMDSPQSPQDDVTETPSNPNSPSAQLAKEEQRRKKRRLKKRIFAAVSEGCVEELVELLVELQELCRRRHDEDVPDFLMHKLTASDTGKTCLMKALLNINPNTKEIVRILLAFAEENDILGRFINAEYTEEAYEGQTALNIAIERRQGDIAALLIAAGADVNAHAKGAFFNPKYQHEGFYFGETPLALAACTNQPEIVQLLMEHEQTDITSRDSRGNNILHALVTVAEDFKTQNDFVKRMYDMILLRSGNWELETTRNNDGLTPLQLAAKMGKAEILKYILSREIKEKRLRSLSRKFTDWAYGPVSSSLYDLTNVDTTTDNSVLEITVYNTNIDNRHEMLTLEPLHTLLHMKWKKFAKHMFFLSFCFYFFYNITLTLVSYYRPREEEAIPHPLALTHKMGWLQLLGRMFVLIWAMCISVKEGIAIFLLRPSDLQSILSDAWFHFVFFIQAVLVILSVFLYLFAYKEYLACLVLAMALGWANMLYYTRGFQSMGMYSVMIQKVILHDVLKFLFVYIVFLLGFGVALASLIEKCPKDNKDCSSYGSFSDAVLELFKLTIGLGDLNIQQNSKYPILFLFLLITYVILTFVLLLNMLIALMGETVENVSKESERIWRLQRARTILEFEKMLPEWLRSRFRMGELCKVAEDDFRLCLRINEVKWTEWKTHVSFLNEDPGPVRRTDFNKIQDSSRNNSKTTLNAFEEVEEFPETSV
Assay: 45Calcium uptake assay: inhibition of 2-APB induced cellular uptake of radioactive calcium
Type: cell-based
Settings: human TRPV3 expressing CHO cells, 2-APB 500 μM
Summary of the method: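 CHO cells stably expressing human TRPV3 (~50,000/well) were preincubated with compounds for 10 min in medium containing 0.1% BSA, 1.8 mM CaCl2 and 0.5% DMSO. Then 500 μM 2-APB and 5 μCi/ml 45Ca2+ were added for 4 min. Lysate radioactivity was expressed as % of maximal uninhibited response, and IC50 came from nonlinear regression, alongside % inhibition at 1.0 and 10.0 μM.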

SMILES: O=C(CCc1ccccc1OC1CCCC1)NC1CC2(CCC2)Oc2ccc(Cl)cc21 (centres unmarked) [Example 28, N-(6-Chloro-3,4-dihydrospiro[chromene-2,1′-cyclobutan]-4-yl)-3-(2-cyclopentyloxyphenyl)propanamide]
- inhibition at 1 µM (1.0 μM compound, read-out: Percentage inhibition at 1.0 μM): 58%
- inhibition at 10 µM (10.0 μM compound, read-out: Percentage inhibition at 10.0 μM): 84.3%
